“Also recorded” adds a separate entry of the source. Numbered stars: 1 amine (or outer) side, 2 acyl side, 3 side chain; on linkers, the order of the positions; unused ones are H or OH. Bridge positions count the residues as written; N and C are the ends. Square brackets hold non-standard residues; d marks the D form. Ends that are not written are not given here. Peptide text beside a SMILES is read from it. I, II: the chains in the order shown. Actinocin(9to1) = Cc1c2oc3c(C)ccc(C(=O)[*:1])c3nc-2c(C(=O)[*:2])c(N)c1=O; NMeV = CN[C@H](C(=O)O)C(C)C; Sar = CNCC(=O)O
Legend:
[1] = system: PGs of B. mori; assay: Effect of inhibitors on induced ecdysone biosynthesis in cultured PGs; type: cell-based, Bombyx mori; conditions: 15 min pre-treatment, 3 hours; for effect of inhibitor on PDF-induced ecdysone biosynthesis: n = 10
Experimental: (§1) Dissected PGs were rinsed with Grace's insect culture medium (Gibco) and pre-cultured individually in 100 µl medium in 96-well plates (BD Falcon) at 25°C for 30 min. To evaluate the effect of extracellular Ca^2+ on ecdysone biosynthesis, lepidopteran saline and lepidopteran saline using NaCl as a replacement for CaCl2 were used. For the pharmacological analysis, the PG was pre-treated with the inhibitor for 15 min during the pre-culture period. Following this treatment, the PG was cultured in the desired conditions for the desired period (Ecdysone assay: 3 hours; cAMP assay: 30 min; and Protein phosphorylation assay: 15 min). Actinomycin D, H-89 and cycloheximide (CHX) were purchased from Sigma; Rapamycin was purchased from Santa Cruz Biotechnology; and LY294002 was purchased from Merck. H-89 was dissolved in water. The other inhibitors were dissolved in DMSO. A 1% volume of the appropriate inhibitor was added to the culture medium.
Prior to ecdysteroids extraction, the 100 µl of cultured medium was diluted with equal volume of MilliQ water. After that, 400 µl of 1-butanol was added to the sample, vortexed for 3 min and centrifuged at 1,000×g for 10 min at 4°C. The 1-butanol phase was transferred to a new tube, and the solvent was evaporated using a centrifugal concentrator. The dried samples were re-dissolved in 50 µl of pure methanol for the following analysis. Quantification of ecdysteroids using LC-MS/MS was performed as previously described with some modifications. Ecdysteroids were separated by reverse-phase HPLC using a PEGASIL C8 column (3 µm, 2×100 mm, Senshu-pak, Senshu-kagaku) with gradient elution of acetonitrile (ACN)/water at a flow rate of 0.2 mL min^−1 (0–3 min (ACN = 10–75%), 3–20 min (75–85%), 20–25 min (100%)), on a Prominence UFLC system (Shimadzu). The separated ecdysteroids were quantified with the QTRAP5500 MS/MS system (AB SCIEX) using MRM mode. For the quantitative analysis, standard curves were generated with concentrations of 0.98–1000 ng/ml.
Because PDF stimulated the increase in intracellular cAMP levels in the PGs, the activation of PKA is likely involved in the PDF signaling pathway. One of the pathways downstream of active PKA is cAMP response element-binding protein (CREB)-mediated transcriptional regulation. First, we evaluated the effect of PDF on the transcript level of known ecdysone biosynthetic enzymes (Nvd, Nm-g, Spo, Phm, Dib and Sad) using Q-PCR. […] Therefore, de novo transcription was not required for PDF-mediated ecdysone biosynthesis for at least 3 hours. […]
(§2) Figure 4 Signaling pathways involved in PDF-induced ecdysone biosynthesis. […] The transcript levels of nvd, nm-g, spo, phm, dib and sad were quantified with Q-PCR. […] Statistically significant differences were evaluated by Student's t-test (***P<0.001, **P<0.01). […]

[2] = system: 4E-BP; assay: p-4E-BP level in cultured PGs (Western blot); type: cell-based, Bombyx mori; conditions: PI3K inhibitor LY294002 50 µM; immunoblotting
Experimental: as §1, with “Actinomycin D, H-89 and cycloheximide (CHX) were purchased from Sigma; Rapamycin was purchased from Santa Cruz Biotechnology; and LY294002 was purchased from Merck. H-89 was dissolved in water. The other inhibitors were dissolved in DMSO. A 1% volume of the appropriate inhibitor was added to the culture medium.” left out
Dissected PGs were pre-cultured in Grace's culture medium for 30 min, then cultured with or without PDF or PTTH for 15 min. The cultured PGs were sonicated in 50 mM Tris-HCl (pH 6.8) with protease inhibitor cocktail (Complete, Roche) and phosphatase inhibitor cocktail (Wako), lysed in 1x SDS sample buffer excluding 2-mercaptoethanol (2ME) and bromophenol blue (BPB), and the protein concentration was measured using the BCA protein assay kit (Pierce). […]
as §2

[3] = system: PGs; conditions: cited from earlier work
From the text: In many cases, a single hormone has multiple functions regulating many physiological phenomena. Thus, both the regulation of receptor expression in the target tissue and the regulation of hormone release are important for the hormone to only affect the target tissue at the appropriate time. In the case of PTTH, the titer of the hormone in the hemolymph is clearly correlated with the ecdysteroid titer ... || In insects, neuropeptide hormones affect the target tissue via humoral and neuronal pathways. […] The increase in intracellular cAMP is thought to be regulated by Ca^2+ signaling in the PTTH signaling pathway, [37]. […] PDF sig ... || (+ 1 further places)

## C[C@@H]1C[C@@H]([C@H](O)CC2CC(=O)NC(=O)C2)C(=O)[C@@H](C)C1 [CHX, cycloheximide]
[1]; translation inhibitor CHX 0.2 mM
  effect of inhibitor on PDF-induced ecdysone biosynthesis: clearly inhibited ecdysone biosynthesis

## O=S(=O)(NCCNC/C=C/c1ccc(Br)cc1)c1cccc2cnccc12 [H-89]
[1]; PKA inhibitor H-89 0.1 mM
  effect of inhibitor on PDF-induced ecdysone biosynthesis: clearly inhibited ecdysone biosynthesis; also recorded: inhibited PDF-induced ecdysone biosynthesis

## O=c1cc(N2CCOCC2)oc2c(-c3ccccc3)cccc12 [LY294002, reference compound]
[2]
  effect of inhibitor on phosphorylation of 4E-BP induced by PDF and PTTH: clearly suppressed the ecdysone biosynthesis and phosphorylation of 4E-BP induced by PDF and PTTH
[1]; PI3K inhibitor LY294002 50 µM, n = 3 and 4
  effect of inhibitor on ecdysone biosynthesis induced by PDF and PTTH: clearly suppressed the ecdysone biosynthesis

## Cc1c2oc3c(C)ccc(C(=O)N[C@@H]4C(=O)N[C@H](C(C)C)C(=O)N5CCC[C@H]5C(=O)N(C)CC(=O)N(C)[C@@H](C(C)C)C(=O)O[C@@H]4C)c3nc-2c(C(=O)N[C@@H]2C(=O)N[C@H](C(C)C)C(=O)N3CCC[C@H]3C(=O)N(C)CC(=O)N(C)[C@@H](C(C)C)C(=O)O[C@@H]2C)c(N)c1=O [actinomycin D] (I: T[dV]P[Sar][NMeV] / II: T[dV]P[Sar][NMeV]; ester I:1-I:C, II:1-II:C; linker I:N-II:N via Actinocin(9to1))
[1]; transcription inhibitor ActD 10 µM
  effect of inhibitor on PDF-induced ecdysone biosynthesis: did not suppress PDF-induced ecdysone biosynthesis

## CCCC(=O)Nc1ncnc2c1ncn2[C@@H]1O[C@@H]2COP(=O)(O)O[C@H]2[C@H]1OC(=O)CCC [dbcAMP, dibutyryl cyclic AMP, reference compound]
[3]; cell-permeable cAMP analog, in vitro, ref [27], [37]
  ecdysone biosynthesis in vitro (literature): can induce ecdysone biosynthesis in vitro
[3]; ref [39]
  effect of a transcription inhibitor on PTTH- and dbcAMP-induced ecdysone biosynthesis (literature): ecdysone biosynthesis was suppressed by a transcription inhibitor

## diapause hormone: neuronal pathway-mediated tropic hormone (TDMKDESDRGAHSERGALWFGPRL; ends and bridges not checked; UniProt P09971 24-47, looked up) [reference compound]
[3]; neuronal pathway-mediated tropic hormone, ref [32], read-out: EC50 of tropic hormone (literature)
  EC50: 0.27 µM

Reference: PMC4114559, “Pigment Dispersing Factor Regulates Ecdysone Biosynthesis via Bombyx Neuropeptide G Protein Coupled Receptor-B2 in the Prothoracic Glands of Bombyx mori” (PLoS ONE, 2014)
